From ChEMBL document CHEMBL1795335, “Synthesis of novel 1,2,4-oxadiazoles and analogues as potential anticancer agents” (Eur J Med Chem, 2011)

Legend:
Type in all cases: functional, cell-based
PC-3 = assay: Cytotoxicity against human PC3 cells after 48 hrs by MTT assay; conditions: PC-3, 48 h
MIA PaCa-2 = assay: Cytotoxicity against human MIAPaCa2 cells after 48 hrs by MTT assay; conditions: MIA PaCa-2, 48 h
DU-145 = assay: Cytotoxicity against human DU145 cells after 48 hrs by MTT assay; conditions: DU-145, 48 h
LNCaP = assay: Cytotoxicity against human LNCAP cells after 48 hrs by MTT assay
MCF7 = assay: Cytotoxicity against human MCF7 cells after 48 hrs by MTT assay; conditions: MCF7, 48 h
MDA-MB-231 = assay: Cytotoxicity against human MDA-MB-231 cells after 48 hrs by MTT assay; conditions: MDA-MB-231, 48 h

| SMILES | IC50 (PC-3) [µM] | IC50 (MIA PaCa-2) [µM] | IC50 (DU-145) [µM] | IC50 (LNCaP) [µM] | IC50 (MCF7) [µM] | IC50 (MDA-MB-231) [µM] |
| --- | --- | --- | --- | --- | --- | --- |
| COc1ccc(-c2nc(-c3cc(OC)c(OC)c(OC)c3)no2)cc1OC | > 1000 | > 1000 | > 1000 | > 1000 | > 1000 | 475 |
| COc1ccc(-c2nc(-c3cc(OC)c(OC)c(OC)c3)no2)cc1 | 214 | 43.5 | 100 | 327 | > 1000 | 768 |
| COc1ccc(-c2noc(C3CCCC3)n2)cc1OC1CCCC1 | 194 | 99.2 | 106 | 138 | 62.3 | 87.5 |
| COc1ccc(-c2noc(C3CCN(C(=O)OC(C)(C)C)CC3)n2)cc1OC1CCCC1 | 108 | 23.3 | 120 | 122 | 60.3 | 38.3 |
| CCCCOc1cc(-c2noc(C3CCNCC3)n2)ccc1OC | 35.8 | 18.5 | 17 | 32.5 | 15.7 | 23.8 |
| COc1ccc(-c2noc(C(Cl)(Cl)Cl)n2)cc1OC1CCCC1 | 15 | 14.5 | 9.3 | 17.8 | 47.4 | 16.1 |
| COc1ccc(-c2nnc(C3CCNCC3)s2)cc1OC1CCCC1 | 12.9 | 10.2 | 19.6 | 19.2 | 17.6 | 9.2 |
| COc1cc(-c2noc(C3CCNCC3)n2)ccc1OC1CCCC1 | 11.7 | 13 | 30 | 42.2 | 29 | 28.5 |
| CCOc1cc(-c2noc(C3CCNCC3)n2)ccc1OC | 166 | 112 | 167 | 154 | 173 | 184 |
| COc1ccc(-c2nnc(C3CCNCC3)o2)cc1OC1CCCC1 | > 1000 | 331 | 146 | 308 | 129 | 38.3 |
| CCCCOc1cc(-c2noc(C3CCN(C(=O)OC(C)(C)C)CC3)n2)ccc1OC | 130 | 105 | 102 | 91 | 91 | 88 |
| COc1ccc(-c2nc(-c3ccc(OC)c(OC4CCCC4)c3)no2)cc1OC | 171 | 404 | 422 | 816 | > 1000 | 236 |
| CCOC(=O)N1CCC(c2nc(-c3ccc(OC)c(OC4CCCC4)c3)no2)CC1 | 80 | 24 | 29.3 | 58.7 | 27 | 36.8 |
| COc1ccc(-c2noc(C3CCCCC3)n2)cc1OC1CCCC1 | 80.3 | 64.5 | 108 | 92.6 | 57.3 | 138 |
| COc1cc(-c2noc(C3CCN(C(=O)OC(C)(C)C)CC3)n2)ccc1OC1CCCC1 | 315 | 21.5 | 98.6 | 106 | 38 | 41 |
| COc1ccc(-c2noc(C3CCNCC3)n2)cc1OC | 315 | 147 | 108 | 38.8 | 27 | 122 |
| COc1ccc(-c2nc(-c3ccc(OC)c(OC4CCCC4)c3)no2)cc1 | 408 | 420 | 414 | 843 | > 1000 | 77.7 |
| COc1cc(-c2noc(C3CCNCC3)n2)cc(OC)c1OC | 176 | 80.1 | 112 | 120 | 324 | 123 |
| COc1ccc(-c2noc(C3CCN(S(C)(=O)=O)CC3)n2)cc1OC1CCCC1 | 159 | 144 | 134 | 149 | 113 | 109 |
| CCOc1cc(-c2noc(C3CCN(C(=O)OC(C)(C)C)CC3)n2)ccc1OC | 41 | 91.1 | 156 | 96.1 | 93.8 | 116 |
| COc1ccc(-c2noc(C3CCN(C(=O)OC(C)(C)C)CC3)n2)cc1OC | 108 | 32.5 | 158 | 85.6 | 52.2 | 129 |
| COc1cc(-c2noc(-c3cc(OC)c(OC)c(OC)c3)n2)cc(OC)c1OC | 698 | > 1000 | 576 | 407 | > 1000 | 261 |
| COc1cc(-c2noc(C3CCN(C(=O)OC(C)(C)C)CC3)n2)cc(OC)c1OC | 56.9 | 106 | 48.4 | 48.2 | 43.6 | 13.6 |
